Source: US7250438B2, “Anti-bacterial and anti-cancer spiro beta-lactone/gamma-lactams” (Nereus Pharmaceuticals, Inc., priority 2004, dated 2007)
pEC50: −log10 of the molar value.

Legend:
B16-F10 cells = test: Growth inhibition of murine melanoma B16-F10 cells (Resazurin); assay type: cell-based; settings: Mus musculus, 48 hours of drug exposure
Method: B16-F10 (ATCC; CRL-6475) a murine melanoma cell line was maintained in complete Dulbecco's Modification of Eagle's Medium (DMEM) (DMEM supplemented with 10% (v/v) Fetal bovine serum, 2 mM glutamine, 10 mM HEPES and Penicillin/Streptomycin at 100 IU/ml and 100 μg/ml respectively). The cells were cultured in an incubator at 37° C, 5% CO2 and 95% humidified air.
For cell growth inhibition assays, B16-F10 cells were seeded at 1.25×10^3 cells/well in 90 μl complete media into Coming 3904 black-walled, clear-bottom tissue culture plates and the plates were incubated overnight to allow cells to establish and enter log phase growth. 20mM stock solutions of the compound of Formula (VI) were prepared in 100% DMSO. 10× concentrated serial dilutions of the compound of Formula (VI) were prepared in appropriate culture medium. […]
Following 48 hours of drug exposure, 10 μl of 0.2 mg/ml Resazurin (obtained from Sigma-Aldrich Chemical Co.) in Mg^2+, Ca^2+ free phosphate buffered saline was added to each well and the plates were returned to the incubator for 3–6 hours. Since living cells metabolize Resazurin, the fluorescence of the reduction product of Resazurin was measured using a Fusion microplate fluorometer (Packard Bioscience) with λex=535 nm and λem=590 nm filters. […]

[1] = Qualitative solubility of the isolated compound; assay type: physicochemical; settings: CHCl3, MeOH, and DMSO
[2] = tested on: Streptococcus pneumoniae - penicillin resistant; test: MIC, serial micro broth dilution (NCCLS M7-A5); assay type: cell-based; settings: Mueller-Hinton broth II with lysed horse blood, 35° C., 18 hours
Method: (§1) Minimum inhibitory concentrations (MICs) were determined according to the National Committee for Clinical Laboratory Standards (NCCLS) susceptibility test guideline M7-A5 to quantify the anti-microbial activity of the compound of Formula (VI) against both gram-positive and gram-negative bacteria. Ferraro, M. 2001 Methods for Dilution Antimicrobial Susceptibility Tests for Bacteria that Grow Aerobically; Approved Standard (NCCLS), Villanova, which is incorporated herein by reference in its entirety. The serial micro broth dilution method used BBL Mueller-Hinton broth (cation adjusted) except for the […] which was tested in BBL Mueller-Hinton broth II (cation adjusted) with lysed horse blood. The final bacterial inoculum contained approximately 5×10^5 CFU/ml and was run on microtiter plates. The volume of each well was 100 μl and the plates were incubated at 35° C. for 18 hours. The MIC was defined as the lowest drug concentration that prevented visible growth of the bacterium. The compound was active versus several microorganisms, especially gram-positive species.

E. coli - imp = test: MIC, serial micro broth dilution (NCCLS M7-A5); assay type: cell-based; settings: Escherichia coli, 18 h
Method: as §1

[3] = tested on: Staphylococcus aureus - MSSA; test: MIC, serial micro broth dilution (NCCLS M7-A5); assay type: cell-based; settings: Mueller-Hinton broth, 35° C., 18 hours
Method: as §1

E. faecalis - Van^s = test: MIC, serial micro broth dilution (NCCLS M7-A5); assay type: cell-based; settings: Enterococcus faecalis, Mueller-Hinton broth, 35° C., 18 hours
Method: as §1

E. faecium - Van^r = test: MIC, serial micro broth dilution (NCCLS M7-A5); assay type: cell-based; settings: Enterococcus faecium, Mueller-Hinton broth, 35° C., 18 hours
Method: as §1

[4] = tested on: Staphylococcus aureus - MRSA; test: MIC, serial micro broth dilution (NCCLS M7-A5); assay type: cell-based; settings: Mueller-Hinton broth, 35° C., 18 hours
Method: as §1

[5] = tested on: Streptococcus pneumoniae - penicillin sensitive; test: MIC, serial micro broth dilution (NCCLS M7-A5); assay type: cell-based; settings: Mueller-Hinton broth II with lysed horse blood, 35° C., 18 hours
Method: as §1

Q: With `COC(CC(C)C(O)/C=C/C=C/CNC(=O)C(C)(C)C(O)\C(C)=C/C=C\C=C\C(C)=C(/C)[N+](=O)[O-])C1(O)C(C)C(=O)N(C)C12C(=O)OC2C` (stereo not drawn) [Formula (VI)] as the compound, how does the pEC50 (B16-F10 cells) read?
A: The pEC50 was 5.02.

Q: What about the “solubility (qualitative)” value [1] of the same compound?
A: Its value is “qualitatively soluble in CHCl3, MeOH, and DMSO”.

Q: And the MIC [2]?
A: The MIC was 1.5 µg/mL.

Q: And the MIC (E. coli - imp)?
A: Its MIC is 12 µg/mL.

Q: What about the MIC [3] of the same compound?
A: The MIC was 4 µg/mL.

Q: What about the MIC (E. faecalis - Van^s) of the same compound?
A: Its MIC is 14 µg/mL.

Q: What about the MIC (E. faecium - Van^r) of the same compound?
A: The MIC was 20 µg/mL.

Q: What about the MIC [4] of the same compound?
A: Its MIC is 5 µg/mL.

Q: And the MIC [5]?
A: Its MIC is 2 µg/mL.
